Data as given in the NIST ThermoML archive (doi:10.1021/je050052+).

Assay: excess molar enthalpy (molar enthalpy of mixing); xn = mol fraction of the nth substance listed
Conditions: Liquid, Flow calorimetry

COC(=O)OC [dimethyl carbonate] + CCCO
Conditions	excess molar enthalpy [kJ/mol]
298.15 K, 1000 kPa, x1 = 0.05	0.4517
298.15 K, 1000 kPa, x1 = 0.1	0.8471
298.15 K, 1000 kPa, x1 = 0.15	1.164
298.15 K, 1000 kPa, x1 = 0.2	1.423
298.15 K, 1000 kPa, x1 = 0.25	1.604
298.15 K, 1000 kPa, x1 = 0.3	1.755
298.15 K, 1000 kPa, x1 = 0.35	1.87
298.15 K, 1000 kPa, x1 = 0.4	1.928
298.15 K, 1000 kPa, x1 = 0.45	1.963
298.15 K, 1000 kPa, x1 = 0.5	1.958
298.15 K, 1000 kPa, x1 = 0.55	1.92
298.15 K, 1000 kPa, x1 = 0.6	1.856
298.15 K, 1000 kPa, x1 = 0.65	1.757
298.15 K, 1000 kPa, x1 = 0.7	1.625
298.15 K, 1000 kPa, x1 = 0.75	1.461
298.15 K, 1000 kPa, x1 = 0.8	1.254
298.15 K, 1000 kPa, x1 = 0.85	1.003
298.15 K, 1000 kPa, x1 = 0.9515	0.348
313.15 K, 1000 kPa, x1 = 0.0485	0.4248
313.15 K, 1000 kPa, x1 = 0.1002	0.8791
313.15 K, 1000 kPa, x1 = 0.1512	1.245
313.15 K, 1000 kPa, x1 = 0.2017	1.54
313.15 K, 1000 kPa, x1 = 0.2516	1.771
313.15 K, 1000 kPa, x1 = 0.3009	1.939
313.15 K, 1000 kPa, x1 = 0.3497	2.059
313.15 K, 1000 kPa, x1 = 0.4014	2.148
313.15 K, 1000 kPa, x1 = 0.449	2.189
313.15 K, 1000 kPa, x1 = 0.4995	2.19
313.15 K, 1000 kPa, x1 = 0.5494	2.149
313.15 K, 1000 kPa, x1 = 0.5987	2.08
313.15 K, 1000 kPa, x1 = 0.6506	1.967
313.15 K, 1000 kPa, x1 = 0.6988	1.834
313.15 K, 1000 kPa, x1 = 0.7495	1.651
313.15 K, 1000 kPa, x1 = 0.8491	1.136
313.15 K, 1000 kPa, x1 = 0.901	0.7944
313.15 K, 1000 kPa, x1 = 0.9493	0.4004
313.15 K, 10000 kPa, x1 = 0.0482	0.4902
313.15 K, 10000 kPa, x1 = 0.0996	0.9343
313.15 K, 10000 kPa, x1 = 0.1504	1.298
313.15 K, 10000 kPa, x1 = 0.2007	1.588
313.15 K, 10000 kPa, x1 = 0.2505	1.811
313.15 K, 10000 kPa, x1 = 0.2997	1.98
313.15 K, 10000 kPa, x1 = 0.3483	2.1
313.15 K, 10000 kPa, x1 = 0.3999	2.183
313.15 K, 10000 kPa, x1 = 0.4509	2.224
313.15 K, 10000 kPa, x1 = 0.5013	2.224
313.15 K, 10000 kPa, x1 = 0.5512	2.187
313.15 K, 10000 kPa, x1 = 0.6005	2.112
313.15 K, 10000 kPa, x1 = 0.6493	2.008
313.15 K, 10000 kPa, x1 = 0.7007	1.846
313.15 K, 10000 kPa, x1 = 0.7515	1.649
313.15 K, 10000 kPa, x1 = 0.8514	1.137
313.15 K, 10000 kPa, x1 = 0.9005	0.809
313.15 K, 10000 kPa, x1 = 0.949	0.4139
328.15 K, 1000 kPa, x1 = 0.05	0.493
328.15 K, 1000 kPa, x1 = 0.1	0.9559
328.15 K, 1000 kPa, x1 = 0.15	1.342
328.15 K, 1000 kPa, x1 = 0.2	1.649
328.15 K, 1000 kPa, x1 = 0.25	1.9
328.15 K, 1000 kPa, x1 = 0.3	2.086
328.15 K, 1000 kPa, x1 = 0.35	2.219
328.15 K, 1000 kPa, x1 = 0.4	2.314
328.15 K, 1000 kPa, x1 = 0.45	2.371
328.15 K, 1000 kPa, x1 = 0.5	2.373
328.15 K, 1000 kPa, x1 = 0.55	2.342
328.15 K, 1000 kPa, x1 = 0.6	2.273
328.15 K, 1000 kPa, x1 = 0.65	2.165
328.15 K, 1000 kPa, x1 = 0.7	2.005
328.15 K, 1000 kPa, x1 = 0.75	1.798
328.15 K, 1000 kPa, x1 = 0.85	1.237
328.15 K, 1000 kPa, x1 = 0.9	0.8825
328.15 K, 1000 kPa, x1 = 0.95	0.4457
